Reference: patent US8491891B2, “Human beta-glucuronidase mutants with elevated enzymatic activity under physiological conditions and method for identifying such” (Academia Sinica, priority 2008, dated 2013)
Like-named read-outs stand apart in the source and are kept apart here. Marks after values point to notes of the source that are not given here.

Columns and labels:
EJ/mβG cells = test: Sensitivity of EJ/mβG cells to CPT-11, SN-38, SN-38G (3H-thymidine incorporation); settings: for IC50: read-out: IC50 (cytotoxicity), EJ/mβG cells
Procedure: EJ human bladder carcinoma cells were cultured in RPMI medium supplemented with 10% bovine calf serum in a humidified atmosphere of 5% CO2 in air at 37° C.
(§1) Cell viability was examined by measuring ^3H-thymidine incorporation into cellular DNA after the cells were cultured for an additional 24 h in fresh medium.

[1] = Intratumoral concentrations of CPT-11, SN-38 and SN-38G after CPT-11 treatment (SPE-HPLC)
Procedure: Tumors were collected 2, 8 and 24 h after CPT treatment, immediately dispersed in ice-cold acidic methanol (methanol: water: perchloric acid=20:20:1), and homogenized 60 sec on an Ultraturax tissue homogenizer at 20,000 rpm. The samples were clarified by centrifugation at 15,000 g for 5 min at 4° C. Supernatants were diluted with 0.1 M KH2PO4 and then separated by SPE-HPLC on a μBondapack column with 27% acetonitrile in 0.1 M potassium phosphate buffer pH=2.6. […] These three analytes were quantified by comparison with standard curves generated with analyte concentrations ranging from 2.0 pg to 200 ng.

[2] = Serum concentrations of CPT-11, SN-38 and SN-38G after CPT-11 administration; settings: for Serum levels in mice bearing EJ versus EJ/mβG tumor: 2 h after CPT-11 administration; for Serum concentrations in mice bearing EJ versus EJ/mβG tumor: 8 h or 24 h after CPT-11 administration
[3] = system: EJ human bladder carcinoma cells; test: Sensitivity of EJ cells to CPT-11, SN-38, SN-38G (3H-thymidine incorporation)
Procedure: as §1

[4] = Enzymatic activity of purified position-545 single mutants at pH 7.0; type: biochemical; settings: purified enzyme
From the text: DNA plasmids were extracted from 12 individual cell clones and subjected to DNA sequencing to examine mutations in the genes encoding human β-glucuronidase variants. All human β-glucuronidase variants being examined had mutations at position 545 (50% T→A and 50% T→S). To determine the effect of amino acid substitutions at position 545 on enzyme activity, the single amino acid mutants T545A (E1-A), T545G (E1-G), T545S (E1-S) and T545Y (E1-Y) were generated and purified from the culture medium of stably transfected fibroblasts. […] Thus, the single amino acid substitution at position 545 affected human β-glucuronidase activity at neutral pH.

[5] = Kinetic values (Km, kcat) of soluble recombinant human β-glucuronidase and variants; type: biochemical
Procedure: Recombinant His-tagged wild-type human β-glucuronidase and its variants (soluble) were produced in and purified from stable 3T3 fibroblast lines, following the method described above also the method described in Wu et al., Biotechnol Appl Biochem 40:167-172 (2004).
The pH-dependent enzyme activities of the above-mentioned recombinant human beta-glucuronidase and variants were measured in triplicate with 0.1 mM ELF97 β-D-glucuronide at 37° C. for 30 minutes at a defined pH ranging from 3-10 in a beta-glucuronidase reaction buffer (50 mM Bis-Tris, 50 mM triethanol amine, 100 mM acetic acid, 0.1% BSA). The reaction was quenched by adding an equal volume of a stop buffer (2 M Tris-HCl, 0.8 M sodium bicarbonate, pH 8). The fluorescence of ELF97 was measured in a Gemini EM microplate spectrofluorometer (Molecular Device, Sunnyvale, Calif.) at excitation/emission wavelengths of 355/555 nm. Kinetic values for human beta-glucuronidase substrate hydrolysis were determined by diluting ELF97 β-D-glucuronide (2 mM) in a pH 4.5 or pH 7.0 beta-glucuronidase reaction buffer 1:1 with defined concentrations of human beta-glucuronidase in 200 μl. Fluorescence was immediately measured under thermal control at 37° C. for 8-10 min. The measurement was repeated using the same amount of enzyme at different substrate concentrations in an optimal range. The acquired readings were converted to product concentration based on preestablished standard curves. Double reciprocal plots were used to determine Km and kcat. Kinetic assays were performed at least 3 times and mean values were calculated. The stability of recombinant human beta-glucuronidase variants was carried out by measuring their enzymatic activity at time 0 and again after incubating 5 μg purified enzymes in PBS (containing 0.5 mg/ml BSA) at 37° C. for 14 days. The enzymatic activities of the human beta-glucuronidase variants were measured in triplicate with 0.5 mM 4-methylumbelliferyl β-D-glucuronide at 37° C. for 15 minutes at pH 7.0 in β-glucuronidase reaction buffer. The reaction was terminated by adding an equal volume of a stop buffer (1 M glycine, 0.5 M sodium bicarbonate, pH 11) and the fluorescence was measured at excitation/emission wavelengths of 355/460 nm in a microplate spectrofluorometer.

[6] = Relative activity of membrane-tethered human β-glucuronidase variants on 3T3 cells by flow cytometry (FL4/FL1); type: cell-based; settings: membrane-tethered enzyme, pH 7.0, substrate ELF97 β-D-glucuronide
Procedure: The 3T3 cell libraries mentioned above were screened by FACS analysis for cells that express human β-glucuronidase variants with elevated enzymatic activity. 10^7 3T3 cells expressing membrane-bound human β-glucuronidase variants were washed and suspended in 0.4 ml BSA/HBSS (5.4 mM KCl, 0.3 mM Na2HPO4, 0.4 mM KH2PO4, 4.2 mM NaHCO3, 1.3 mM CaCl2, 0.5 mM MgCl2, 0.6 mM MgSO4, 137 mM NaCl, 5.6 mM D-glucose, pH 7.4) containing 0.5% bovine serum albumin (BSA) and 20 μg/ml 7G8-FITC for 30 min at 4° C. Cells were then washed and incubated with 25, 50 or 100 μM ELF97 β-D-glucuronide at defined pH values in 50 mM Bis-Tris, 25 mM glucose, 85.6 mM NaCl, 5.4 mM KCl, 0.6 mM MgSO4, 1.3 mM CaCl2) at 37° C. for 10 min. The cells were washed with ice-cold 0.5% BSA/HBSS and suspended in 0.5% BSA/HBSS containing 5 μg/ml propidium iodide (Sigma). Cells were then sorted on a FACSVantage DiVa (Becton, Dickinson and Company, Franklin Lakes, N.J.) equipped with an Enterprise IIC argon laser for dual excitation at 488 and 351-364 nm. Dead cells (propidium iodide positive, high FL3 fluorescence) were gated out before 7G8-FITC immunofluorescence was detected at excitation/emission wavelengths of 488/515 nm (FL1) and ELF97 was detected at excitation/emission wavelengths of 351/530 nm (FL4). […] The sorted cells were cultured for 4-10 days for sequential rounds of cell sorting or RNA extraction. Flow cytometer data was analyzed using Flowjo (Tree star, Ashland, Oreg.).
Independent 3T3 clones (5×10^7) in library EP2 mentioned above were immunofluorescence stained with 7G8-FITC and reacted with ELF97 β-D-glucuronide at pH 7.0. Sixteen individual cell clones were isolated after three rounds of sorting and the human β-glucuronidase genes were sequenced. […] Table 1 below lists amino acid substitutions in five exemplary variants and their relative enzymatic activities.

[7] = 24 h after CPT-11 10 mg/kg i.v.

Molecule	IC50 (EJ/mβG cells; pH 6.6)	IC50 (EJ/mβG cells; pH 7.4)	Serum levels in mice bearing EJ versus EJ/mβG tumor [2]	Serum concentrations in mice bearing EJ versus EJ/mβG tumor [2]	Km ([5]; pH 4.5, 37° C.)	kcat ([5]; pH 4.5, 37° C.)	Km ([5]; pH 7.0, 37° C.)	kcat ([5]; pH 7.0, 37° C.)	Relative activity (FL4/FL1 normalized to wild-type human β-glucuronidase) [6]	other results
CCc1c2c(nc3ccc(O)cc13)-c1cc3c(c(=O)n1C2)COC(=O)[C@]3(O)CC [SN-38]	2 nM	6 nM	similar	no significant differences	–	–	–	–	–	Intratumoral concentration, percent higher in EJ/mβG tumors as compared to EJ tumors ([1]; 2, 8 and 24 h): 65-130%; Difference EJ/mβG vs EJ (EJ values as 100%) ([1]; 2 h): 65.63* %; Concentration in EJ xenografts ([1]; 2 h after CPT-11 10 mg/kg i.v.): 43 ± 10.5 ng drug/g tumor; Concentration in EJ/mβG xenografts ([1]; 2 h after CPT-11 10 mg/kg i.v.): 71 ± 13 ng drug/g tumor; Difference EJ/mβG vs EJ (EJ values as 100%) ([1]; 8 h): 127.10* %; Concentration in EJ xenografts ([1]; 8 h after CPT-11 10 mg/kg i.v.): 7.5 ± 0.93 ng drug/g tumor; Concentration in EJ/mβG xenografts ([1]; 8 h after CPT-11 10 mg/kg i.v.): 17 ± 5.56 ng drug/g tumor; Difference EJ/mβG vs EJ (EJ values as 100%) ([1]; 24 h): 71.43* %; Concentration in EJ xenografts [1, 7]: 0.07 ± 0.02 ng drug/g tumor; Concentration in EJ/mβG xenografts [1, 7]: 0.12 ± 0.01 ng drug/g tumor; IC50 ([3]; read-out: IC50 (cytotoxicity), pH 6.6): 2 nM; IC50 ([3]; read-out: IC50 (cytotoxicity), pH 7.4): 6 nM
SN-38G	32 nM	190 nM	similar	no significant differences	–	–	–	–	–	Sensitivity of EJ/mβG cells relative to EJ cells (EJ/mβG cells; EJ/mβG vs EJ cells): over 30 times; Cytotoxicity at the highest concentration investigated ([3]; 1000 nM): non-toxic
E1-A: human β-glucuronidase single amino acid mutant T545A (protein, UniProt P08236 23-651, looked up, variant T545A) Beta-glucuronidase: LQGGMLYPQESPSRECKELDGLWSFRADFSDNRRRGFEEQWYRRPLWESGPTVDMPVPSSFNDISQDWRLRHFVGWVWYEREVILPERWTQDLRTRVVLRIGSAHSYAIVWVNGVDTLEHEGGYLPFEADISNLVQVGPLPSRLRITIAINNTLTPTTLPPGTIQYLTDTSKYPKGYFVQNTYFDFFNYAGLQRSVLLYTTPTTYIDDITVTTSVEQDSGLVNYQISVKGSNLFKLEVRLLDAENKVVANGTGTQGQLKVPGVSLWWPYLMHERPAYLYSLEVQLTAQTSLGPVSDFYTLPVGIRTVAVTKSQFLINGKPFYFHGVNKHEDADIRGKGFDWPLLVKDFNLLRWLGANAFRTSHYPYAEEVMQMCDRYGIVVIDECPGVGLALPQFFNNVSLHHHMQVMEEVVRRDKNHPAVVMWSVANEPASHLESAGYYLKMVIAHTKSLDPSRPVTFVSNSNYAADKGAPYVDVICLNSYYSWYHDYGHLELIQLQLATQFENWYKKYQKPIIQSEYGAEAIAGFHQDPPLMFTEEYQKSLLEQYHLGLDQKRRKYVVGELIWNFADFMTEQSPTRVLGNKKGIFTRQRQPKSAAFLLRERYWKIANETRYPHSVAKSQCLENSLFT	–	–	–	–	–	–	–	–	–	Enzymatic activity relative to wild-type human β-glucuronidase [4]: about 2.5 fold
E2-20: human beta-glucuronidase variant L243Q, L255Q, T545G, SEQ ID NO: 10 (protein, Laboratory generated variant, E2-20, based upon the human beta-glucuronidase) AAQPALQGGMLYPQESPSRECKELDGLWSFRADFSDNRRRGFEEQWYRRPLWESGPTVDMPVPSSFNDISQDWRLRHFVGWVWYEREVILPERWTQDLRTRVVLRIGSAHSYAIVWVNGVDTLEHEGGYLPFEADISNLVQVGPLPSRLRITIAINNTLTPTTLPPGTIQYLTDTSKYPKGYFVQNTYFDFFNYAGLQRSVLLYTTPTTYIDDITVTTSVEQDSGQVNYQISVKGSNQFKLEVRLLDAENKVVANGTGTQGQLKVPGVSLWWPYLMHERPAYLYSLEVQLTAQTSLGPVSDFYTLPVGIRTVAVTKSQFLINGKPFYFHGVNKHEDADIRGKGFDWPLLVKDFNLLRWLGANAFRTSHYPYAEEVMQMCDRYGIVVIDECPGVGLALPQFFNNVSLHHHMQVMEEVVRRDKNHPAVVMWSVANEPASHLESAGYYLKMVIAHTKSLDPSRPVTFVSNSNYAADKGAPYVDVICLNSYYSWYHDYGHLELIQLQLATQFENWYKKYQKPIIQSEYGAEGIAGFHQDPPLMFTEEYQKSLLEQYHLGLDQKRRKYVVGELIWNFADFMTEQSPTRVLGNKKGIFTRQRQPKSAAFLLRERYWKIANETRYPHSVAKSQCLENSPFTSVD	–	–	–	–	6.7 ± 0.5 µM	71 ± 3 s⁻¹	38 ± 5 µM	30 ± 5 s⁻¹	116	Km as compared to E1-G [5]: about a three-fold smaller Km; kcat/Km at pH 7.0, fold greater than kcat/Km of wild type at pH 4.5 ([5]; variant at pH 7.0 vs wild type at pH 4.5): about 2 fold
S28: human beta-glucuronidase variant Q518R, T545S, E595Y, T599F, SEQ ID NO: 9 (protein, Laboratory generated variant, S28, based upon the human beta-glucuronidase) AAQPALQGGMLYPQESPSRECKELDGLWSFRADFSDNRRRGFEEQWYRRPLWESGPTVDMPVPSSFNDISQDWRLRHFVGWVWYEREVILPERWTQDLRTRVVLRIGSAHSYAIVWVNGVDTLEHEGGYLPFEADISNLVQVGPLPSRLRITIAINNTLTPTTLPPGTIQYLTDTSKYPKGYFVQNTYFDFFNYAGLQRSVLLYTTPTTYIDDITVTTSVEQDSGLVNYQISVKGSNLFKLEVRLLDAENKVVANGTGTQGQLKVPGVSLWWPYLMHERPAYLYSLEVQLTAQTSLGPVSDFYTLPVGIRTVAVTKSQFLINGKPFYFHGVNKHEDADIRGKGFDWPLLVKDFNLLRWLGANAFRTSHYPYAEEVMQMCDRYGIVVIDECPGVGLALPQFFNNVSLHHHMQVMEEVVRRDKNHPAVVMWSVANEPASHLESAGYYLKMVIAHTKSLDPSRPVTFVSNSNYAADKGAPYVDVICLNSYYSWYHDYGHLELIRLQLATQFENWYKKYQKPIIQSEYGAESIAGFHQDPPLMFTEEYQKSLLEQYHLGLDQKRRKYVVGELIWNFADFMTYQSPFRVLGNKKGIFTRQRQPKSAAFLLRERYWKIANETRYPHSVAKSQCLENSPFTSVD	–	–	–	–	16 ± 3 µM	79 ± 3 s⁻¹	72 ± 24 µM	26 ± 3 s⁻¹	47	–
